The values that follow come from patent US9181230B2, “Morpholine compounds and uses thereof” (Hoffmann-La Roche Inc., priority 2013, dated 2015).

Usually Ki stands for the equilibrium dissociation constant of an inhibitor or competing ligand from its target. Read a high Ki as lower affinity.

Where a name gives a salt, the structure may show the parent alone.

Chain of mouse TAAR1 (Q923Y8 whole entry): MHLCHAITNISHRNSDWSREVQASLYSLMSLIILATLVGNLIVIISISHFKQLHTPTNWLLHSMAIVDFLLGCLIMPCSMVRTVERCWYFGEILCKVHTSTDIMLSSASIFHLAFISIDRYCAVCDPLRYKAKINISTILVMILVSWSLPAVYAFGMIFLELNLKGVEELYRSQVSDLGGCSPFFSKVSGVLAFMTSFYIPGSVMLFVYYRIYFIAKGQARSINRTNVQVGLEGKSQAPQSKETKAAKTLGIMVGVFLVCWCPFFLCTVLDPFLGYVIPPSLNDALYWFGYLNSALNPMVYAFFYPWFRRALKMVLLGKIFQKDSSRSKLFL

The target of the first assay is mouse TAAR1 (Mus musculus (Mouse), UniProt Q923Y8). Put plainly: Radioligand binding assay on mouse TAAR1. Conditions: mouse TAAR1, membranes of HEK-293 cells, first value of the cell pair mouse/rat. The method, then:
(§1) For the construction of expression plasmids the coding sequences of human, rat and mouse TAAR 1 were amplified from genomic DNA essentially as described by Lindemann et al.. The Expand High Fidelity PCR System (Roche Diagnostics) was used with 1.5 mM Mg^2+ and purified PCR products were cloned into pCR2.1-TOPO cloning vector (Invitrogen) following the instructions of the manufacturer. PCR products were subcloned into the pIRESneo2 vector (BD Clontech, Palo Alto, Calif.), and expression vectors were sequence verified before introduction in cell lines.
(§2) HEK293 cells (ATCC # CRL-1573) were cultured essentially as described by Lindemann et al. (2005). For the generation of stably transfected cell lines HEK293 cells were transfected with the pIRESneo2 expression plasmids containing the TAAR coding sequences (described above) with Lipofectamine 2000 (Invitrogen) according to the instructions of the manufacturer, and 24 hrs post transfection the culture medium was supplemented with 1 mg/ml G418 (Sigma, Buchs, Switzerland). After a culture period of about 10 d clones were isolated, expanded and tested for responsiveness to trace amines (all compounds purchased from Sigma) with the cAMP Biotrak Enzyme immunoassay (EIA) System (Amersham) following the non-acetylation EIA procedure provided by the manufacturer.
(A) Radioligand Binding Assay on Mouse TAAR1
(§3) Membrane Preparation and Radioligand Binding.
(§4) HEK-293 cells stably expressing mouse TAAR1 were maintained at 37° C. and 5% CO2 in DMEM high glucose medium, containing fetal calf serum (10%, heat inactivated for 30 min at 56° C.), penicillin/streptomycin (1%), and 375 μg/ml geneticin (Gibco). Cells were released from culture flasks using trypsin/EDTA, harvested, washed twice with ice-cold PBS (without Ca^2+ and Mg^2+), pelleted at 1,000 rpm for 5 min at 4° C., frozen and stored at −80° C. Frozen pellets were suspended in 20 ml HEPES-NaOH (20 mM, pH 7.4) containing 10 mM EDTA and homogenized with a Polytron (PT 6000, Kinematica) at 14,000 rpm for 20 s. The homogenate was centrifuged at 48,000×g for 30 min at 4° C. Subsequently, the supernatant was removed and discarded, and the pellet resuspended in 20 ml HEPES-NaOH (20 mM, pH 7.4) containing 0.1 mM EDTA using the Polytron (20 s at 14,000 rpm). This procedure was repeated and the final pellet resuspended in HEPES-NaOH containing 0.1 mM EDTA and homogenized using the Polytron. Typically, aliquots of 2 ml membrane portions were stored at −80° C. With each new membrane batch the dissociation constant (Kd) was determined via a saturation curve. […] Nonspecific binding was defined as the amount of ^3[H]-(S)-4-[(ethyl-phenyl-amino)-methyl]-4,5-dihydro-oxazol-2-ylamine bound in the presence of 10 μM unlabeled ligand. All compounds were tested at a broad range of concentrations (10 pM to 10 μM) in duplicates. […] The 96 deep well plates were incubated for 1 hr at 4° C. Incubations were terminated by rapid filtration through Unifilter-96 plates (Packard Instrument Company) and glass filters GF/C (Perkin Elmer) presoaked for 1 hr in polyethylenimine (0.3%) and washed 3 times with 1 ml of cold binding buffer. After addition of 45 μl of Microscint 40 (PerkinElmer) the Unifilter-96 plate was sealed and after 1 hr the ratioactivity counted using a TopCount Microplate Scintillation Counter (Packard Instrument Company).
Regarding `c1ccc2[nH]c(-c3ccc(C4CNCCO4)cc3)nc2c1` (centres unmarked) [Example 1, 2-(4-(1H-Benzo[d]imidazol-2-yl)phenyl)morpholine hydrochloride], the affinity, expressed as Ki, was 0.038 µM.

As to `Clc1ccc2nc(-c3ccc(C4CNCCO4)cc3)[nH]c2c1` (centres unmarked) [Example 2, 2-(4-(6-Chloro-1H-benzo[d]imidazol-2-yl)phenyl)morpholine hydrochloride], the Ki amounted to 0.0032 µM. `Clc1ccc(-c2cc(-c3ccc(C4CNCCO4)cc3)n[nH]2)cc1` (centres unmarked) [Example 3, 2-(4-(5-(4-Chlorophenyl)-1H-pyrazol-3-yl)phenyl)morpholine hydrochloride] returned a Ki of 0.001 µM.

The molecule `Fc1ccc(-c2cc(-c3ccc(C4CNCCO4)cc3)n[nH]2)cc1` (centres unmarked) [Example 4, 2-(4-(5-(4-Fluorophenyl)-1H-pyrazol-3-yl)phenyl)morpholine hydrochloride] came in with an inhibitory constant (Ki) of 0.0012 µM. On the same count and under the same terms, the same measure for `Clc1ccc(-c2cc(-c3ccc(C4CNCCO4)cc3)n[nH]2)cn1` (centres unmarked) [Example 5, 2-(4-(5-(6-Chloropyridin-3-yl)-1H-pyrazol-3-yl)phenyl)morpholine hydrochloride]: 0.0044 µM; for `Brc1cnc2nc(-c3ccc([C@H]4CNCCO4)cc3)[nH]c2c1` [Example 7, (S)-2-(4-(6-bromo-1H-imidazo[4,5-b]pyridin-2-yl)phenyl)morpholine hydrochloride]: 0.0089 µM; for `Fc1cc(F)c2nc(-c3ccc([C@H]4CNCCO4)cc3)[nH]c2c1` [Example 11, (S)-2-(4-(4,6-Difluoro-1H-benzo[d]imidazol-2-yl)phenyl)morpholine hydrochloride]: 0.009 µM.

`Fc1ccc(-c2cc(-c3ccc([C@H]4CNCCO4)cc3)n[nH]2)c(F)c1` [Example 13, (S)-2-(4-(5-(2,4-Difluorophenyl)-1H-pyrazol-3-yl)phenyl)morpholine hydrochloride]: the affinity, expressed as Ki, was 0.0003 µM.

In turn, `Fc1ccc(-c2cc(-c3ccc([C@@H]4CNCCO4)cc3)n[nH]2)c(F)c1` [Example 14, (R)-2-(4-(5-(2,4-Difluorophenyl)-1H-pyrazol-3-yl)phenyl)morpholine hydrochloride] had a Ki of 0.0008 µM. Compared with the last molecule, the Ki is about 2.7-fold higher. `Fc1ccc(-n2cc(-c3ccc([C@H]4CNCCO4)cc3)nn2)cc1` [Example 18, (S)-2-(4-(1-(4-Fluorophenyl)-1H-1,2,3-triazol-4-yl)phenyl)morpholine hydrochloride] gave a Ki of 0.002 µM.

With `Fc1ccc(-c2ncn(-c3ccc([C@H]4CNCCO4)cc3)n2)cc1` [Example 25, (S)-2-(4-(3-(4-Fluorophenyl)-1H-1,2,4-triazol-1-yl)phenyl)morpholine hydrochloride], the Ki came to 0.0034 µM. `Fc1ccc(-c2cn(-c3ccc([C@H]4CNCCO4)cc3)nn2)cc1` [Example 27, (S)-2-(4-(4-(4-Fluorophenyl)-1H-1,2,3-triazol-1-yl)phenyl)morpholine hydrochloride] showed a Ki of 0.0004 µM. The same measure, in the same setting: then `O=C(Nc1cc(-c2ccc([C@H]3CNCCO3)cc2)n[nH]1)c1ccc(F)cc1` [Example 30, (S)-4-Fluoro-N-(3-(4-(morpholin-2-yl)phenyl)-1H-pyrazol-5-yl)benzamide hydrochloride], with 0.0022 µM; and `N#Cc1ccc(-c2cc(-c3ccc([C@H]4CNCCO4)cc3)n[nH]2)c(F)c1` [Example 33, (S)-3-Fluoro-4-(3-(4-(morpholin-2-yl)phenyl)-1H-pyrazol-5-yl)benzonitrile hydrochloride], with 0.0016 µM. With `Fc1ccc(-n2cc(-c3ccc([C@@H]4CNCCO4)cc3)nn2)cc1` [Example 35, (R)-2-(4-(1-(4-Fluorophenyl)-1H-1,2,3-triazol-4-yl)phenyl)morpholine hydrochloride], affinity was put at a Ki of 0.0017 µM. As to `Fc1ccc(-c2ncn(-c3ccc([C@@H]4CNCCO4)cc3)n2)cc1` [Example 36, (R)-2-(4-(3-(4-Fluorophenyl)-1H-1,2,4-triazol-1-yl)phenyl)morpholine hydrochloride], the affinity, expressed as Ki, was 0.0097 µM.

For `Fc1ccc(-c2cn(-c3ccc([C@@H]4CNCCO4)cc3)nn2)cc1` [Example 39, (R)-2-(4-(4-(4-Fluorophenyl)-1H-1,2,3-triazol-1-yl)phenyl)morpholine hydrochloride], affinity was put at a Ki of 0.001 µM. `Clc1cc(-c2cc(-c3ccc([C@H]4CNCCO4)cc3)n[nH]2)ccn1` [Example 42, (S)-2-(4-(5-(2-Chloropyridin-4-yl)-1H-pyrazol-3-yl)phenyl)morpholine hydrochloride] yielded an inhibitory constant (Ki) of 0.0016 µM.

Consider `Fc1ccc(-c2nc3cc([C@H]4CNCCO4)ccc3[nH]2)cc1` [Example 43, (S)-2-(2-(4-Fluorophenyl)-1H-benzo[d]imidazol-5-yl)morpholine hydrochloride], for which affinity was put at a Ki of 0.0014 µM. In the case of `Fc1ccc(-c2nc3cc([C@@H]4CNCCO4)ccc3[nH]2)cc1` [Example 44, (R)-2-(2-(4-Fluorophenyl)-1H-benzo[d]imidazol-5-yl)morpholine hydrochloride], the Ki stood at 0.004 µM. This Ki lies about 2.9-fold higher than the previous one. `FC(F)(F)c1ccc2c(n1)[nH]c1ccc([C@H]3CNCCO3)cc12` [Example 49, (S)-2-(2-(Trifluoromethyl)-9H-pyrido[2,3-b]indol-6-yl)morpholine hydrochloride]: the Ki was 0.0032 µM.

In the next assay the target is rat TAAR1 (Rattus norvegicus (Rat), UniProt Q923Y9). Put plainly: Radioligand binding assay on rat TAAR1. Conditions: rat TAAR1, membranes of HEK-293 cells, second value of the cell pair mouse/rat. The method, then: as §1, §2
Chain of rat TAAR1 (Q923Y9 whole entry): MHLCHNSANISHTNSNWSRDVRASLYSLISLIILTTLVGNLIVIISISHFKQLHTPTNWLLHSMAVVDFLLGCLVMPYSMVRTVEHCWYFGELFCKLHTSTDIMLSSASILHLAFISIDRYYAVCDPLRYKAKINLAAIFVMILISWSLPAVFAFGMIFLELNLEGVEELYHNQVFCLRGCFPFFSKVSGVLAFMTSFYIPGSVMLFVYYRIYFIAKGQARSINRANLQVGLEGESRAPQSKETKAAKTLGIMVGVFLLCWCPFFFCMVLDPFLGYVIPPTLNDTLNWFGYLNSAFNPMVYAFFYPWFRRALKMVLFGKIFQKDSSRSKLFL
(B) Radioligand Binding Assay on Rat TAAR1
as §3
as §4, with “rat” for “mouse”
In the case of `c1ccc2[nH]c(-c3ccc(C4CNCCO4)cc3)nc2c1` (centres unmarked) [Example 1, 2-(4-(1H-Benzo[d]imidazol-2-yl)phenyl)morpholine hydrochloride], affinity was put at a Ki of 0.76 µM. Regarding `Clc1ccc(-c2cc(-c3ccc(C4CNCCO4)cc3)n[nH]2)cc1` (centres unmarked) [Example 3, 2-(4-(5-(4-Chlorophenyl)-1H-pyrazol-3-yl)phenyl)morpholine hydrochloride], the affinity, expressed as Ki, was 0.0034 µM. Compared with the last molecule, the Ki is about 220-fold lower. The same measure, in the same setting: the same measure for `Fc1ccc(-c2cc(-c3ccc(C4CNCCO4)cc3)n[nH]2)cc1` (centres unmarked) [Example 4, 2-(4-(5-(4-Fluorophenyl)-1H-pyrazol-3-yl)phenyl)morpholine hydrochloride]: 0.0059 µM. On the same count and under the same terms, the same measure for `Clc1ccc(-c2cc(-c3ccc(C4CNCCO4)cc3)n[nH]2)cn1` (centres unmarked) [Example 5, 2-(4-(5-(6-Chloropyridin-3-yl)-1H-pyrazol-3-yl)phenyl)morpholine hydrochloride]: 0.0631 µM; for `Cc1cc2nc(-c3ccc([C@H]4CNCCO4)cc3)[nH]c2cc1C` [Example 16, (S)-2-(4-(5,6-Dimethyl-1H-benzo[d]imidazol-2-yl)phenyl)morpholine hydrochloride]: 1.14 µM.

The molecule `c1cnc2[nH]c3ccc([C@H]4CNCCO4)cc3c2c1` [Example 45, (S)-2-(9H-Pyrido[2,3-b]indol-6-yl)morpholine hydrochloride] had a Ki of 1 µM.

For the molecule `FC(F)(F)c1cc(-c2nc3ccc([C@@H]4CNCCO4)cc3o2)ccn1` [Example 54, (R)-6-(Morpholin-2-yl)-2-(2-(trifluoromethyl)pyridin-4-yl)benzo[d]oxazole hydrochloride], the Ki came to 0.448 µM.

`FC(F)(F)c1cc(-c2nc3ccc([C@H]4CNCCO4)cc3o2)ccn1` [Example 55, (S)-6-(Morpholin-2-yl)-2-(2-(trifluoromethyl)pyridin-4-yl)benzo[d]oxazole hydrochloride] gave an inhibitory constant (Ki) of 0.304 µM.
